Results on five compounds are retold here after PMC2621304 (Analytical biochemistry, 2008).

Series [1] addresses T1, Rat AhR (Rattus norvegicus, UniProt P41738).
T1 sequence (P41738 10-853): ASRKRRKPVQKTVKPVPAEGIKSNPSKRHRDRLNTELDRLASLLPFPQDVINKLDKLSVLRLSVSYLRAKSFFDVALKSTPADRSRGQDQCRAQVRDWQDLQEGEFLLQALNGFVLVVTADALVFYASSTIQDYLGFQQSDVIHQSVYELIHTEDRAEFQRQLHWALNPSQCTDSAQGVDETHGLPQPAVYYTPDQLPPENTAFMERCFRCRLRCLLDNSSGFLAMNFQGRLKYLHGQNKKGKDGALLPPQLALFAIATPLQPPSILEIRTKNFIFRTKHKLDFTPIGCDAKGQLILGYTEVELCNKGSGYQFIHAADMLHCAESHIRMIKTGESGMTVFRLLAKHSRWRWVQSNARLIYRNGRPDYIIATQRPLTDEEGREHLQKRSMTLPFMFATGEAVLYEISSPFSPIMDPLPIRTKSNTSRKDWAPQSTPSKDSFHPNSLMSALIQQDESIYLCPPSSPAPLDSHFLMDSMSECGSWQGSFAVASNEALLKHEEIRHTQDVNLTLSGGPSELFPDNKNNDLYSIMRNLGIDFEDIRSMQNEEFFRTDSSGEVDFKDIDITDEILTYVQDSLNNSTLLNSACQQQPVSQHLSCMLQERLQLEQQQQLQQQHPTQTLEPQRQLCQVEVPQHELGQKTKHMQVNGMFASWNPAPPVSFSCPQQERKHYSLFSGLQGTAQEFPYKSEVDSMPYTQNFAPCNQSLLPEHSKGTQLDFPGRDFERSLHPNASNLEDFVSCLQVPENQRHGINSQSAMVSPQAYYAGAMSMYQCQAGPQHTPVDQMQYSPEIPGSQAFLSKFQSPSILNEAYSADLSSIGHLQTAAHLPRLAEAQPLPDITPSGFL
Nature of the series: Competitive binding assay against [3H]-TCDD, recombinant rat AhR.

For series [2], the target named is T2, Human AhR (Homo sapiens, UniProt P35869).
T2 sequence (P35869 11-848): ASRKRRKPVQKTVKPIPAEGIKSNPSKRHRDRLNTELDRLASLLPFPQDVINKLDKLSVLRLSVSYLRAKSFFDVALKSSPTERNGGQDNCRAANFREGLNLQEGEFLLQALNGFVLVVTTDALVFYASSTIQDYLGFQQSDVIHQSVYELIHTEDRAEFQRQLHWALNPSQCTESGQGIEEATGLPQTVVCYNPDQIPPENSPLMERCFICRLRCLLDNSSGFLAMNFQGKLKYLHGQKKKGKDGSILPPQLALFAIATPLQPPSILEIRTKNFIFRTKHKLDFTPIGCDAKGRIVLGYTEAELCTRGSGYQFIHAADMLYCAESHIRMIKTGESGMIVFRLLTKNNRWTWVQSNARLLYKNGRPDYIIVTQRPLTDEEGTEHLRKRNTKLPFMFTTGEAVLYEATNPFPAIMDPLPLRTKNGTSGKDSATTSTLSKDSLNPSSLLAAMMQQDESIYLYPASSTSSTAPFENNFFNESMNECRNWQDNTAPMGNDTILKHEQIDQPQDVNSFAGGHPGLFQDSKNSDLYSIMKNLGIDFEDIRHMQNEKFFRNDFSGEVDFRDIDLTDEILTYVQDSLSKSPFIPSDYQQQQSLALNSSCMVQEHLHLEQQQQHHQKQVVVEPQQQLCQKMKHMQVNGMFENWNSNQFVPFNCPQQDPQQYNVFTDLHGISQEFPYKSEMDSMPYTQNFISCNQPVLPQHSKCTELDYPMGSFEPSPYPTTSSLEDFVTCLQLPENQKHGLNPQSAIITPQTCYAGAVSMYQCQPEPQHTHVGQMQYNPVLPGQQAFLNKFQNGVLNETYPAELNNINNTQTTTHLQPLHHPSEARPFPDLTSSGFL
Nature of the series: Competitive binding assay against [3H]-TCDD, recombinant human AhR.

Series [3] is described as follows: Solubility of TCDD in protein solution. In kind it is physicochemical. To be noted: unpublished data.
A further series concerns the target T3, AhR in rat liver cytosol (Rattus norvegicus, UniProt P41738).
T3 sequence (P41738 10-853): T1 sequence (P41738 10-853)
Nature of the series: [3H]-TCDD saturation binding, rat liver cytosol.

In series [4] the target is T1, Rat AhR. Nature of the series: [3H]-TCDD saturation binding, recombinant rat AhR in Sf9 cytosol.
Series [5] concerns the target T2, Human AhR. Nature of the series: [3H]-TCDD saturation binding, recombinant human AhR in Sf9 cytosol. To be noted: optimised conditions.

A word on the Ki: it is the equilibrium dissociation constant of an inhibitor or competing ligand from its target. For `Clc1cc2c(cc1Cl)Oc1c(cc(Cl)c(Cl)c1Cl)O2` [1,2,3,7,8-pentachlorodibenzo-p-dioxin], the Ki was 0.46 nM on Rat AhR [1] and 7.62 nM at Human AhR [2].
As for `Clc1cc2oc3c(Cl)c(Cl)c(Cl)cc3c2cc1Cl` [2,3,4,7,8-pentachlorodibenzofuran], the inhibition constant (Ki) on Rat AhR [1] was 1.5 nM. Also, the “potency as ligand relative to PCDD, rat AhR” value at Rat AhR [1] (relative to PCDD) is on record as “three-fold less potent”. For the same compound, on Human AhR [2], the Ki stood at 14.1 nM; the “potency relative to TCDF and PCDD, human AhR” value is recorded as “two-fold less potent”.
With `Clc1cc2oc3cc(Cl)c(Cl)cc3c2cc1Cl` [2,3,7,8-tetrachlorodibenzofuran], the Ki on Rat AhR [1] was 0.36 nM; on Human AhR [2] it was 6.27 nM.
On to `Clc1ccc(-c2cc(Cl)c(Cl)c(Cl)c2)cc1Cl` [PCB126, polychlorinated biphenyl 126], for which the Ki stood at 24.7 nM at Rat AhR [1] and 736 nM on Human AhR [2]. For the same compound, the “fold less potent than TCDD, rat AhR” value at Rat AhR [1] (relative to TCDD) was ~50 fold. Moreover, the “fold less potent as a ligand than TCDD, human AhR” value at Human AhR [2] (relative to TCDD) is ~40 fold.
Regarding `Clc1cc2c(cc1Cl)Oc1cc(Cl)c(Cl)cc1O2` [TCDD, 2,3,7,8-tetrachlorodibenzo-p-dioxin], in series [3], the “solubility in protein solution” value is listed as “declines dramatically at concentrations much in excess of 2 nM”. In addition, the Kd worked out at 1 ± 0.45 nM on AhR in rat liver cytosol (apparent Kd for TCDD, saturation binding, mean ± Standard deviation, n=6); 1.35 nM at Rat AhR [4] (Kd (typical experiment, Fig. 5A), MOI of 0.1, typical experiment); 1.34 ± 0.32 nM on Rat AhR [4] (Kd for TCDD, recombinant rat AhR, MOI of 0.1, n=6 independent determinations); 2.77 ± 0.94 nM on Human AhR [5] (Kd for TCDD, human AhR, n=6). The “maximal binding capacity (Bmax)” value at AhR in rat liver cytosol (per mg cytosolic protein, [3H]-TCDD) is 52 fmol/mg. The Ki is 0.55 nM at Rat AhR [1] and 15.4 nM at Human AhR [2]. At Human AhR [2], the “potency relative to TCDF and PCDD, human AhR” value is reported as “two-fold less potent”. For the same compound, the “Bmax, recombinant rat AhR” value at Rat AhR [4] (MOI of 0.1, [3H]-TCDD) is 1.5±0.37 pmol/ mg cytosolic protein. The “Bmax (typical experiment, Fig. 5A)” value on Rat AhR [4] (MOI of 0.1, typical experiment) worked out at 1.83 pmol/mg. For the same compound, the “Bmax, human AhR” value at Human AhR [5] ([3H]-TCDD) is listed as 0.46±0.12 pmol/mg cytosolic protein.
